Columns and labels:
[1] = system: OVA-sensitized BALB/c mice; experiment: Airway responsiveness to methacholine in vivo (whole-body plethysmography, Penh) in mouse model of allergic asthma; design: species or system mouse (BALB/c)
Protocol: (§1) Animals. Animal care and use were performed in accordance with the guidelines of the Dutch Committee of Animal Experiments. Specific pathogen-free male BALB/c mice (5 to 6 weeks old) were purchased from Charles River (Maastricht, The Netherlands) and housed in macrolon cages in a laminar flow cabinet and provided with food and water ad libitum.
Sensitization, treatment and challenge. Mice (6 to 8 weeks old) were sensitized intraperitoneally (i.p.) on days 0 and 7 with 10 μg ovalbumin (OVA, grade V, Sigma-Aldrich) in 0.1 ml alum (Pierce, Rockford, Ill.). Two weeks after the last sensitization, the mice were divided into six groups. The sham-immunotherapy and the OVA-immunotherapy groups were treated with three s.c. injections of, respectively, 0.2 ml pyrogen-free saline (B. Braun, Melsungen, Germany) or 1 mg OVA in 0.2 ml pyrogen-free saline on alternate days. In three groups, OVA-immunotherapy was co-injected with 0.1 μg, 0.03 μg or 0.01 μg 1α,25-dihydroxyvitamin D3 (1α,25(OH)2 VitD3), a selective inhibitor of NF-κb. […]
Measurement of airway responsiveness in vivo. Airway responsiveness to methacholine was measured after treatment but before OVA challenge (pre-measurement) and 24 hours after the last OVA challenge. Airway responsiveness was measured in conscious, unrestrained mice using barometric whole-body plethysmography by recording respiratory pressure curves (Buxco, EMKA Technologies, Paris, France) in response to inhaled methacholine (acetyl-β-methylcholine chloride, Sigma-Aldrich). […] Briefly, mice were placed in a whole-body chamber and basal readings were determined for three minutes. Aerosolized saline, followed by doubling concentrations of methacholine (ranging from 3.13-25 mg/ml in saline), were nebulized for three minutes, and readings were determined for three minutes after each nebulization.
Statistical analysis. All data are expressed as mean±standard error of mean (SEM). The airway dose-response curves to methacholine were statistically analyzed by a general linear model of repeated measurements followed by post-hoc comparison between groups. […]

[2] = system: OVA-sensitized BALB/c mice; experiment: OVA-specific IgE levels in serum (sandwich ELISA) in mouse model of allergic asthma; format: in vivo, mouse (BALB/c)
Protocol: as §1
(§2) Sensitization, treatment and challenge. Mice (6 to 8 weeks old) were sensitized intraperitoneally (i.p.) on days 0 and 7 with 10 μg ovalbumin (OVA, grade V, Sigma-Aldrich) in 0.1 ml alum (Pierce, Rockford, Ill.). Two weeks after the last sensitization, the mice were divided into six groups. The sham-immunotherapy and the OVA-immunotherapy groups were treated with three s.c. injections of, respectively, 0.2 ml pyrogen-free saline (B. Braun, Melsungen, Germany) or 1 mg OVA in 0.2 ml pyrogen-free saline on alternate days. In three groups, OVA-immunotherapy was co-injected with 0.1 μg, 0.03 μg or 0.01 μg 1α,25-dihydroxyvitamin D3 (1α,25(OH)2 VitD3), a selective inhibitor of NF-κb. One group was treated with sham-immunotherapy and combined with co-injection of 0.1 μg 1α,25(OH)2 VitD3. Ten days after treatment, mice were exposed to three OVA inhalation challenges (10 mg/ml in saline) for 20 minutes every third day.
Determination of OVA-specific IgE levels in serum. From each mouse, serum was obtained after treatment but before OVA challenge (pre-measurement) by a small incision in the tail vein. After measurement of airway responsiveness in vivo, mice were sacrificed by i.p. injection of 1 ml 10% urethane in saline and were bled by cardiac puncture. […] Serum levels of OVA-specific IgE were measured by sandwich ELISA as described previously (Deurloo et al., 2001).
Statistical analysis. All data are expressed as mean±standard error of mean (SEM). The airway dose-response curves to methacholine were statistically analyzed by a general linear model of repeated measurements followed by post-hoc comparison between groups. […] All other data were analyzed using a Student's t test (2-tailed, homosedastic). […]

[3] = system: OVA-sensitized BALB/c mice; experiment: Cellular composition of bronchoalveolar lavage fluid (eosinophil number) in mouse model of allergic asthma; format: in vivo, mouse (BALB/c)
Protocol: as §1, §2
In a second series of experiments, OVA-immunotherapy, as described above, was carried out using a sub-optimal amount of 100 μg OVA in saline for OVA-immunotherapy. OVA-immunotherapy was either given alone or in combination with 0.01 μg 1α,25(OH)2 VitD3. Sham-immunotherapy alone or in combination with 0.01 μg 1α,25(OH)2 VitD3 served as control groups.
Analysis of the cellular composition of the bronchoalveolar lavage fluid. Bronchoalveolar lavage (BAL) was performed immediately after bleeding of the mice by lavage of the airways through a tracheal cannule five times with 1 ml saline (37° C.). Cells in the BALF were centrifuged and resuspended in cold PBS. The total number of cells in the BAL was determined using a Bürker-Türk counting chamber (Karl Hecht Assistant KG, Sondheim/Röhm, Germany). For differential BAL cell counts, cytospin preparations were made (15×g, five minutes, 4° C., Kendro Heraues Instruments, Asheville, N.C.). Next, cells were fixed and stained with Diff-Quick (Dade A. G., Düdingen, Switzerland). Per cytospin, 200 cells were counted and differentiated into mononuclear cells, eosinophils, and neutrophils by standard morphology and staining characteristics.
Statistical analysis. All data are expressed as mean±standard error of mean (SEM). The airway dose-response curves to methacholine were statistically analyzed by a general linear model of repeated measurements followed by post-hoc comparison between groups. Data were log transformed before analysis to equalize variances in all groups. All other data were analyzed using a Student's t test (2-tailed, homosedastic). Results were considered statistically significant at the p<0.05 level.

[4] = co-injection of 0.01 μg with OVA-immunotherapy (1 mg OVA), compared to OVA-immunotherapy alone

| Compound | AHR to methacholine after OVA inhalation challenge ([1]; co-injection of 0.1 μg with sham-immunotherapy (saline)) | AHR to methacholine after OVA inhalation challenge ([1]; co-injection s.c. of 0.1, 0.03 or 0.01 μg (all doses used) with OVA-immunotherapy (1 mg OVA), compared to OVA-IT alone, P<0.05) | Serum levels of OVA-specific IgE after OVA inhalation challenge [2, 4] | Serum levels of OVA-specific IgE after OVA inhalation challenge ([2]; co-injection of 0.1 μg with sham-immunotherapy, compared to sham-immunotherapy alone) | Number of BALF eosinophils after OVA inhalation challenge [3, 4] | Number of BALF eosinophils after OVA inhalation challenge ([3]; first series, co-injection of 0.1 μg with sham-immunotherapy) | Number of BALF eosinophils after OVA inhalation challenge ([3]; second series, co-injection of 0.01 μg with sham-immunotherapy) | Number of BALF eosinophils after OVA inhalation challenge ([3]; second series, co-injection of 0.01 μg with sub-optimal OVA-immunotherapy (100 μg OVA), compared to OVA-immunotherapy alone) | AHR to methacholine after OVA inhalation challenge ([1]; OVA-immunotherapy alone (3 s.c. injections of 1 mg OVA), compared to sham-treated mice, P<0.05) | Serum levels of OVA-specific IgE after OVA inhalation challenge ([2]; OVA-immunotherapy alone (1 mg OVA), compared to sham-treated OVA-challenged mice) | Number of BALF eosinophils after OVA inhalation challenge ([3]; OVA-immunotherapy alone (1 mg OVA), compared to sham-treated mice) | Number of BALF eosinophils after OVA inhalation challenge ([3]; second series, sub-optimal OVA-immunotherapy alone (100 μg OVA), compared to sham-treated mice) |
| --- | --- | --- | --- | --- | --- | --- | --- | --- | --- | --- | --- | --- |
| C=C1/C(=C\C=C2/CCC[C@]3(C)[C@@H]([C@H](C)CCCC(C)(C)O)CC[C@@H]23)C[C@@H](O)C[C@@H]1O [1α,25(OH)2 VitD3, 1α,25-dihydroxyvitamin D3] | did not affect AHR | significantly potentiated the reduction of AHR to methacholine | significantly increased the reduction of serum IgE levels | did not affect serum IgE levels | significantly increased the reduction of BALF eosinophil numbers | did not significantly affect BAL eosinophil number | did not significantly affect BAL eosinophil number | significantly increased the reduction of BALF eosinophil numbers | – | – | – | – |
| OVA-immunotherapy: three s.c. injections of 1 mg (or sub-optimal 100 μg) ovalbumin (OVA, grade V) in pyrogen-free saline on alternate days | – | – | – | – | – | – | – | – | partially reduced | significantly reduced | significantly reduced | significantly reduced |

From patent publication US20060057154A1, “Compositions for inducing of immunotolerance” (Universiteit Utrecht Holding B.V., priority 2003, published 2006)
